Source: US6239171A, “Tocotrienols and tocotrienol-like compounds and methods for their use” (Lipogenics, Inc., priority 1998, dated 2001)

Key:
Type in all cases: in vivo
[1] = tested on: cholesterol 7α-hydroxylase; assay: Hepatic cholesterol 7α-hydroxylase activity in hypercholesterolemic swine; details: control diet + 50 ppm
From the text: (§1) All assays conducted on chicken or swine serum were done following the protocols described in A. A. Qureshi et al., "Lowering Of Serum Cholesterol In Hypercholesterolemic Humans By Tocotrienols" (Palmvitee), Am. J. Clin. Nutr., 53, pp. 1021S-26S (1991). All enzymatic assays were done following the protocols described in A. A. Qureshi et al., "Effects of Cereals and Culture Filtrate of Trichoderma viride on Lipid Metabolism of Swine", Lipids, 17, pp. 924 (1982). Plasma insulin, glucagon and TNF levels were measured using radioinnumoassay kits from Ventrex Laboratories, Inc. (Portland, Me.), ICN Biomedicals, Inc. (Costa Mesa, Calif.) and Genzyme Corp. (Cambridge, Mass.), respectively.
We next measured the effects of various tocotrienols from rice bran on HMG-CoA reductase and cholesterol 7α-hydroxylase in hypercholesterolemic swine. Since pigs are very similar to humans in their cholesterol metabolism, they provide a useful model from which to study hypercholesterolemia and related diseases. […] The serum cholesterol concentration in these swine is typically above 300-500 mg/dl, as compared to 120-160 mg/dl in normal adult swine. As a result, the pigs develop complicated atherosclerotic plaques that closely resemble advanced atherosclerotic lesions found in humans.
(§2) Each group of three 5-month old swine was administered either a control diet or a control diet supplemented with 50 ppm of TRF or 50 ppm of an individual tocotrienol. The samples were prepared as described in Example 11. After a 12 hour fast, serum and plasma samples were taken a 0 hrs, 21 days and 42 days from the start of the feeding period. After taking serum and plasma samples from the pigs at the end of the 42 day period, all of the swine were fasted for a total of 40 hours, followed by a 48 hour refeeding period. One swine from each group was sacrificed at that time and the liver, intestine, lung, heart, loin muscle, adipose tissue and ham muscle were removed.

[2] = tested on: hypercholesterolemic swine; assay: Plasma thromboxane B2 and platelet factor 4 in hypercholesterolemic swine; details: control diet + 50 ppm, 42 days
From the text: as §1, §2
This example was conducted to measure the serum levels of apolipoprotein (a)1, apolipoprotein B, triglycerides, glucose, insulin and glucagon and the plasma levels of thromboxane B2 and platelet factor 4 in the swine described in Example 15.

[3] = tested on: hypercholesterolemic swine; assay: Serum cholesterol, apolipoproteins, triglycerides, glucose, insulin and glucagon in hypercholesterolemic swine
Procedure: All assays conducted on chicken or swine serum were done following the protocols described in A. A. Qureshi et al., "Lowering Of Serum Cholesterol In Hypercholesterolemic Humans By Tocotrienols" (Palmvitee), Am. […] Plasma insulin, glucagon and TNF levels were measured using radioinnumoassay kits from Ventrex Laboratories, Inc. (Portland, Me.), ICN Biomedicals, Inc. (Costa Mesa, Calif.) and Genzyme Corp. (Cambridge, Mass.), respectively.
We next measured the effects of various tocotrienols from rice bran on HMG-CoA reductase and cholesterol 7α-hydroxylase in hypercholesterolemic swine. Since pigs are very similar to humans in their cholesterol metabolism, they provide a useful model from which to study hypercholesterolemia and related diseases. […] As a result, the pigs develop complicated atherosclerotic plaques that closely resemble advanced atherosclerotic lesions found in humans.
as §2, with “The samples were prepared as described in Example 11.” left out
The experimental conditions were the same, except that the two remaining swine in each group were transferred to the unsupplemented control diet following the 42 day feeding period. After an additional 70 days, serum and plasma samples were collected from these swine after a 12 hour fast for testing.

[4] = 70 days on control diet after 42 days at 50 ppm

In the case of `CC(C)=CCC/C(C)=C/CC/C(C)=C/CCC1(C)CCc2cc(O)c(C)c(C)c2O1` (stereo not drawn) [γ-T3, γ-tocotrienol, reference compound], the “CHOLESTEROL 7α-HYDROXYLASE, percentage of baseline value” ([1]; 21 days) is reported as 100.89%, the “Cholesterol 7α-hydroxylase” value ([1]; 21 days) is reported as 4.53 pg/min/mg of microsomes and the “CHOLESTEROL 7α-HYDROXYLASE, Percentage of Control Activity” value ([1]; 42 days) is reported as 98.18%. The “CHOLESTEROL 7α-HYDROXYLASE, percentage of baseline value” ([1]; 42 days) was 102.00%, the “Cholesterol 7α-hydroxylase” value ([1]; 42 days) was 4.58 pg/min/mg of microsomes and the “Platelet Factor 4, percentage of control” value [2] was 85.28%. For the same compound, the “Thromboxane B2” value [2] was 62.54 pg/100 ml, the “Thromboxane B2, percentage of control” value [2] was 92.25% and the “HDL-CHOLESTEROL CONCENTRATION IN SERUM” value [3, 4] was 30.47 mg/100 ml. For the same compound, the “HDL-CHOLESTEROL, Percentage of Control Activity” value [3, 4] was 106.66%, the “HDL-CHOLESTEROL, percentage of baseline value” [3, 4] was 139.39% and the “HDL:LDL CHOLESTEROL, Percentage of Control Activity” value [3, 4] was 84.52%. The “LDL-CHOLESTEROL CONCENTRATION IN SERUM” value [3, 4] was 224.66 mg/100 ml, the “LDL-CHOLESTEROL, Percentage of Control Activity” value [3, 4] was 88.61% and the “LDL-CHOLESTEROL, percentage of baseline value” [3, 4] was 125.95%. For the same compound, the “TOTAL CHOLESTEROL CONCENTRATION IN SERUM” value [3, 4] was 271.70 mg/100 ml, the “TOTAL CHOLESTEROL, Percentage of Control Activity” value [3, 4] was 78.80% and the “TOTAL CHOLESTEROL, percentage of baseline value” [3, 4] was 129.66%. For the same compound, the “Apo A1, percentage of control” value ([3]; control diet + 50 ppm, 6 weeks) was 102.06%, the “Apo A1 concentration in serum” value ([3]; control diet + 50 ppm, 6 weeks) was 26.22 ± 1.11 mg/100 ml and the “Apo B concentration in serum” value ([3]; control diet + 50 ppm, 6 weeks) was 114.29 ± 1.79 mg/100 ml. For the same compound, the “Apo B, percentage of control” value ([3]; control diet + 50 ppm, 6 weeks) was 77.34%, the “Triglycerides concentration in serum” value ([3]; control diet + 50 ppm, 6 weeks) was 61.78 mg/100 ml and the “Triglycerides, percentage of control” value ([3]; control diet + 50 ppm, 6 weeks) was 80.69%. The “HDL-CHOLESTEROL CONCENTRATION IN SERUM” value ([3]; control diet + 50 ppm, 21 days) was 25.27 mg/100 ml, the “HDL-CHOLESTEROL, percentage of baseline value” ([3]; control diet + 50 ppm, 21 days) was 115.59% and the “HDL:LDL CHOLESTEROL, percentage of baseline value” ([3]; control diet + 50 ppm, 21 days) was 89.83%. For the same compound, the “LDL-CHOLESTEROL CONCENTRATION IN SERUM” value ([3]; control diet + 50 ppm, 21 days) was 185.12 mg/100 ml, the “LDL-CHOLESTEROL, percentage of baseline value” ([3]; control diet + 50 ppm, 21 days) was 103.78% and the “TOTAL CHOLESTEROL CONCENTRATION IN SERUM” value ([3]; control diet + 50 ppm, 21 days) was 225.20 mg/100 ml. For the same compound, the “TOTAL CHOLESTEROL, percentage of baseline value” ([3]; control diet + 50 ppm, 21 days) was 107.39%, the Glucagon ([3]; control diet + 50 ppm, 42 days) was 285.41 pg/mL and the “Glucagon, percentage of control” value ([3]; control diet + 50 ppm, 42 days) was 86.38%. The Glucose ([3]; control diet + 50 ppm, 42 days) was 74.40 mg/100 ml, the “Glucose, percentage of control” value ([3]; control diet + 50 ppm, 42 days) was 77.51% and the “HDL-CHOLESTEROL CONCENTRATION IN SERUM” value ([3]; control diet + 50 ppm, 42 days) was 28.55 mg/100 ml. The “HDL-CHOLESTEROL, Percentage of Control Activity” value ([3]; control diet + 50 ppm, 42 days) was 111.06%, the “HDL-CHOLESTEROL, percentage of baseline value” ([3]; control diet + 50 ppm, 42 days) was 130.60% and the “HDL:LDL CHOLESTEROL, Percentage of Control Activity” value ([3]; control diet + 50 ppm, 42 days) was 60.58%. For the same compound, the “HDL:LDL CHOLESTEROL, percentage of baseline value” ([3]; control diet + 50 ppm, 42 days) was 82.84%, the Insulin ([3]; control diet + 50 ppm, 42 days) was 21.2 µU/mL and the “Insulin, percentage of control” value ([3]; control diet + 50 ppm, 42 days) was 103.46%. For the same compound, the “LDL-CHOLESTEROL CONCENTRATION IN SERUM” value ([3]; control diet + 50 ppm, 42 days) was 193.80 mg/100 ml, the “LDL-CHOLESTEROL, Percentage of Control Activity” value ([3]; control diet + 50 ppm, 42 days) was 66.22% and the “LDL-CHOLESTEROL, percentage of baseline value” ([3]; control diet + 50 ppm, 42 days) was 108.65%. For the same compound, the “TOTAL CHOLESTEROL CONCENTRATION IN SERUM” value ([3]; control diet + 50 ppm, 42 days) was 233.93 mg/100 ml, the “TOTAL CHOLESTEROL, Percentage of Control Activity” value ([3]; control diet + 50 ppm, 42 days) was 71.00% and the “TOTAL CHOLESTEROL, percentage of baseline value” ([3]; control diet + 50 ppm, 42 days) was 111.76%.
